Reference: patent US6627650B2, “Indenoindolone compounds” (Les Laboratoires Servier, priority 2001, dated 2003)
Structures can show the parent of a compound that is named as a salt. Where two headings read alike, the source gives them in different places.

Experiments:
A549 = assay: In vitro cytotoxicity, microculture tetrazolium assay, A549; type: cell-based, human; details: read-out: IC50 A549
Description: (§1) Five cell lines were used:
1 non-small-cell human lung carcinoma, A549.
(§2) The cells are cultured in RPMI 1640 complete culture medium comprising 10% fetal calf serum, 2 mM glutamine, 50 units/ml of penicillin, 50 μg/ml of streptomycin and 10 mM Hepes, pH 7.4. The cells are distributed on microplates and are exposed to the cytotoxic compounds. The cells are then incubated for four doubling periods (2 days: L1210, P388, or 4 days: A549, HT29, A-431). The number of viable cells is then quantified by a colorimetric assay, the microculture tetrazolium assay (Cancer Res. 1987, 47 939-942).
(§3) The results are expressed as IC50, the concentration of product that inhibits the proliferation of the treated cells by 50% compared with the untreated cells.

HT29 = assay: In vitro cytotoxicity, microculture tetrazolium assay, HT29; type: cell-based, human; details: HT-29, 96 h, read-out: IC50 HT29
Description: as §1
1 human colon carcinoma, HT29.
as §2, §3

A-431 = assay: In vitro cytotoxicity, microculture tetrazolium assay, A-431; type: cell-based, human; details: read-out: IC50 A-431
Description: as §1
1 human epidermoid carcinoma, A-431.
as §2, §3

L1210 cells = assay: Action on the cell cycle (L1210), flow cytometry; type: cell-based, murine; details: concentration 0.25 μM, after 21 hours (control: 20%)
Description: L1210 cells are incubated for 21 hours at 37° C. in the presence of various concentrations of compound tested. The cells are then fixed using 70% ethanol (v/v), washed twice in PBS and incubated for 30 minutes at 20° C. in PBS that contains 100 μg/ml of RNAse and 50 μg/ml of propidium iodide. The distribution of the cells in the various phases of the cell cycle are then analysed by flow cytometry. The results are expressed as a percentage of the cells that have accumulated in the G2+M phase after 21 hours compared with the control (control: 20%). By way of example, at a concentration of 0.25 μM the compounds of Examples 1 and 18 induce a 75% accumulation of the cells in the G2+M phase after 21 hours.

L1210 = assay: In vitro cytotoxicity, microculture tetrazolium assay, L1210; type: cell-based; details: Mus musculus, 48 h; L1210 murine leukaemia, 2 days incubation, inhibition of proliferation
Description: as §1, §2, §3

P388 = assay: In vitro cytotoxicity, microculture tetrazolium assay, P388; type: cell-based; details: Mus musculus, 48 h; P388 murine leukaemia, 2 days incubation, inhibition of proliferation
Description: as §1, §2, §3

C38 colon carcinoma = assay: In vivo anti-tumour activity on established C38 colon carcinoma; details: from a dose of 25 mg/kg, i.v. once a week for 3 weeks (days 10, 17 and 24), B6D2F1 mice, subcutaneous C38
Description: Fragments of C38 colon carcinoma weighing approximately 30 mg were grafted subcutaneously on day 0 onto B6D2F1 mice (Iffa Credo, France). After growth of the tumour, the mice were separated into control (18 animals) and treated (6 to 7 animals) groups, which were homogeneous in respect of the tumour size. The products were administered by the i.v. route once a week for 3 weeks (on days 10, 17 and 24) at their maximum tolerated dose (MTD), MTD/2 and MTD/4.
The tumours were measured twice per week and the tumour volumes were calculated according to the formula: volume (mm^3)=length (mm)×width^2 (mm^2)/2.
The anti-tumour activity is expressed as % T/C: [formula]
VO and Vt denoting, respectively, the initial volume of the tumour and its volume at the time of measurement t.
The optimum dose is the dose that yields the lowest T/C without toxicity (premature death or loss of weight greater than 20%).

C#CC(O/N=C1/c2cc(OC)c(OC)cc2-c2[nH]c3ccc(OCCN(C)C)cc3c21)c1ccccc1 (centres unmarked) [Example 1, (10Z)-8-(2-Dimethylaminoethoxy)-2,3-dimethoxyindeno[1,2-b]indole-10(5H)-one O-(1-Phenyl-2-Propynyl)oxime Hydrochloride]
IC50 (A549; Homo sapiens, A549, 96 h): 71 nM | IC50 (HT29; Homo sapiens): 248 nM | IC50 (A-431; Homo sapiens, A-431, 96 h): 87 nM | accumulation of the cells in the G2+M phase (L1210 cells): 75%

C#CCO/N=C1/c2cc(OC)c(OC)cc2-c2[nH]c3ccc(OCCN(C)C)cc3c21.Cl [Example 18, (10Z)-8-(2-Dimethylaminoethoxy)-2,3-dimethoxyindeno[1,2-b]indole-10(5H)-one O-(2-Propynyl)oxime Hydrochloride]
IC50 (L1210): 104 nM | IC50 (P388): 241 nM | IC50 (A549; 96 h, A549 non-small-cell human lung carcinoma, 4 days incubation): 101 nM | IC50 (HT29; HT29 human colon carcinoma, 4 days incubation): 181 nM | IC50 (A-431; 96 h, A-431 human epidermoid carcinoma, 4 days incubation): 174 nM | accumulation of the cells in the G2+M phase (L1210 cells): 75% | T/C (tumour volume) (C38 colon carcinoma): 24%
